Test results taken from EP2818472A1, “Imidazo[4,5-c]pyridine and pyrrolo[3,2-c]pyridine compounds as G-protein-coupled receptor kinase 5 (GRK5) modulators” (Max-Planck-Gesellschaft zur Förderung der Wissenschaften …, priority 2013, dated 2014).

test system: beta-TC6 cells; assay: Insulin HTRF assay (relative activity Ar) in beta-TC6 cells; type: cell-based, mouse; conditions: Mus musculus, Beta-TC6, 4 h, insulin HTRF, supernatant of beta-TC6 cells, incubation with test compound at 37°C for 2, 3, 4h; read-out: Ar (relative activity)
Outline: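 beta-TC6 cells (15k/well, seeded 24 or 48 h) washed, then exposed to compound in induction buffer (0.5% DMSO final) for 2, 3 or 4 h at 37°C.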

First: CNc1nc2cnc(Nc3ccc4c(c3)OCCO4)cc2n1CCN1CCOCC1 [Compound 554, N6-(2,3-dihydro-1,4-benzodioxin-6-yl)-N2-methyl-1-(2-morpholinoethyl)imidazo[4,5-c]pyridine-2,6-diamine]
Second: Cn1cc(-c2cc3cnc(Nc4ccc5c(c4)OCO5)cc3n2C)cn1 [Compound 143, N-(1,3-benzodioxol-5-yl)-1-methyl-2-(1-methylpyrazol-4-yl)pyrrolo[3,2-c]pyridin-6-amine]
The Emax of the first is lower: 50 to 100% for the first, > 100% for the second.

First: CNc1nc2cnc(Nc3ccc(OC)c(O)c3)cc2n1-c1cccc(C(F)(F)F)c1 [Compound 551, 2-methoxy-5-[[2-(methylamino)-1-[3-(trifluoromethyl)phenyl]imidazo[4,5-c]pyridin-6-yl]amino]phenol]
Second: CNc1nc2cnc(Nc3ccccn3)cc2n1-c1cccc(C(F)(F)F)c1 [Compound 548, N2-methyl-N6-(2-pyridyl)-1-[3-(trifluoromethyl)phenyl]imidazo[4,5-c]pyridine-2,6-diamine]
The Emax of the first is higher: 50 to 100% for the first, 30 to 50% for the second.

First: Oc1cccc(Nc2nccc3[nH]c(-c4ccsc4)cc23)c1 [Compound 264, 3-[[2-(3-thienyl)-1H-pyrrolo[3,2-c]pyridin-4-yl]amino]phenol]
Second: CC(=O)Nc1cccc(Nc2nccc3[nH]c(-c4ccsc4)cc23)c1 [Compound 266, N-[3-[[2-(3-thienyl)-1H-pyrrolo[3,2-c]pyridin-4-yl]amino]phenyl]acetamide]
The Emax of the first is lower: 30 to 50% for the first, 50 to 100% for the second.

First: COc1cccc(-c2nc3c(N4CCOCC4)nccc3[nH]2)c1F [Compound 480, 4-[2-(2-fluoro-3-methoxy-phenyl)-1H-imidazo[4,5-c]pyridin-4-yl]morpholine]
Second: COc1ccc(-c2nc3c(NCC4CC4)nccc3[nH]2)cc1OC [Compound 354, N-(cyclopropylmethyl)-2-(3,4-dimethoxyphenyl)-1H-imidazo[4,5-c]pyridin-4-amine]
The Emax of the first is lower: 30 to 50% for the first, 50 to 100% for the second.

First: c1cc2[nH]c(-c3ccsc3)cc2c(Nc2ccc3c(c2)OCCO3)n1 [Compound 252, N-(2,3-dihydro-1,4-benzodioxin-6-yl)-2-(3-thienyl)-1H-pyrrolo[3,2-c]pyridin-4-amine]
Second: Cn1c(-c2ccsc2)cc2c(Nc3ccc4c(c3)OCCO4)nccc21 [Compound 273, N-(2,3-dihydro-1,4-benzodioxin-6-yl)-1-methyl-2-(3-thienyl)pyrrolo[3,2-c]pyridin-4-amine]
The Emax of the first is higher: 50 to 100% for the first, 30 to 50% for the second.

First: Cn1c(NCC2CCCO2)nc2cnc(Nc3ccc(F)c(Cl)c3)cc21 (stereo not drawn) [Compound 643, N6-(3-chloro-4-fluoro-phenyl)-1-methyl-N2-(tetrahydrofuran-2-ylmethyl)imidazo[4,5-c]pyridine-2,6-diamine]
Second: CC(=O)Nc1ccc(Nc2cc3c(cn2)nc(NCc2ccccc2)n3C)cc1 [Compound 617, N-[4-[[2-(benzylamino)-1-methyl-imidazo[4,5-c]pyridin-6-yl]amino]phenyl]acetamide]
The Emax of the first is lower: 30 to 50% for the first, 50 to 100% for the second.

First: Cc1cccc(-c2nc3c(NCCc4ccccn4)nccc3[nH]2)c1 [Compound 437, 2-(m-tolyl)-N-[2-(2-pyridyl)ethyl]-1H-imidazo[4,5-c]pyridin-4-amine]
Second: Oc1cccc(Nc2nccc3[nH]c(-c4ccncc4)nc23)c1 [Compound 431, 3-[[2-(4-pyridyl)-1H-imidazo[4,5-c]pyridin-4-yl]amino]phenol]
The Emax of the first is lower: 30 to 50% for the first, 50 to 100% for the second.

First: Cn1c(-c2ccsc2)cc2c(Nc3ccc(C#N)cc3)nccc21 [Compound 281, 4-[[1-methyl-2-(3-thienyl)pyrrolo[3,2-c]pyridin-4-yl]amino]benzonitrile]
Second: COc1ccc(Nc2nccc3c2cc(-c2ccsc2)n3C)cc1 [Compound 279, N-(4-methoxyphenyl)-1-methyl-2-(3-thienyl)pyrrolo[3,2-c]pyridin-4-amine]
The Emax of the first is lower: 0 to 30% for the first, 30 to 50% for the second.

Compared with `CN(C)c1ccc(-c2cc3c(Nc4ccc(C(N)=O)cc4)nccc3n2C)cc1` [Compound 227, 4-[[2-(4-dimethylaminophenyl)-1-methyl-pyrrolo[3,2-c]pyridin-4-yl]amino]benzamide], `CN(C)C(=O)c1ccc(-c2cc3cnc(Nc4cccc(N(C)C)c4)cc3n2C)cc1` [Compound 50, 4-[6-[3-(dimethylamino)anilino]-1-methyl-pyrrolo[3,2-c]pyridin-2-yl]-N,N-dimethyl-benzamide] is higher in Emax: 30 to 50% for the first, 50 to 100% for the second.

First: CC(=O)c1cccc(-c2cc3c(cn2)nc(NCc2ccccc2F)n3C)c1 [Compound 747, 1-[3-[2-[(2-fluorophenyl)methylamino]-1-methyl-imidazo[4,5-c]pyridin-6-yl]phenyl]ethanone]
Second: Cn1c(NCc2ccccc2F)nc2cnc(-c3cccs3)cc21 [Compound 658, N-[(2-fluorophenyl)methyl]-1-methyl-6-(2-thienyl)imidazo[4,5-c]pyridin-2-amine]
The Emax of the first is lower: 0 to 30% for the first, 50 to 100% for the second.

`CNc1nc2cnc(Nc3cc(OC)c(OC)c(OC)c3)cc2n1Cc1cccnc1` [Compound 559, N2-methyl-1-(3-pyridylmethyl)-N6-(3,4,5-trimethoxyphenyl)imidazo[4,5-c]pyridine-2,6-diamine] and `CNc1nc2cnc(Nc3cc(OC)c(OC)c(OC)c3)cc2n1Cc1ccccc1` [Compound 526, 1-benzyl-N2-methyl-N6-(3,4,5-trimethoxyphenyl)imidazo[4,5-c]pyridine-2,6-diamine] fall in the same range of Emax: 50 to 100% for the first, 50 to 100% for the second.

`COC(=O)c1ccc(Nc2cc3c(cn2)cc(-c2cnn(C)c2)n3C)cc1` [Compound 141, methyl 4-[[1-methyl-2-(1-methylpyrazol-4-yl)pyrrolo[3,2-c]pyridin-6-yl]amino]benzoate] and `Cn1cc(-c2cc3cnc(Nc4ccc(C#N)cc4)cc3n2C)cn1` [Compound 142, 4-[[1-methyl-2-(1-methylpyrazol-4-yl)pyrrolo[3,2-c]pyridin-6-yl]amino]benzonitrile] fall in the same range of Emax: 50 to 100% for the first, 50 to 100% for the second.

First: CN1CCN(c2ccc(Nc3cc4[nH]c(-c5ccc(C(=O)N(C)C)cc5)cc4cn3)cc2)CC1 [Compound 26, N,N-dimethyl-4-[6-[4-(4-methylpiperazin-1-yl)anilino]-1H-pyrrolo[3,2-c]pyridin-2-yl]benzamide]
Second: CN(C)C(=O)c1ccc(-c2cc3cnc(Nc4ccc(C(F)(F)F)cc4)cc3[nH]2)cc1 [Compound 32, N,N-dimethyl-4-[6-[4-(trifluoromethyl)anilino]-1H-pyrrolo[3,2-c]pyridin-2-yl]benzamide]
The Emax of the first is higher: 50 to 100% for the first, 30 to 50% for the second.

`COc1ccccc1-c1cc2c(Nc3ccccn3)nccc2n1C` [Compound 304, 2-(2-methoxyphenyl)-1-methyl-N-(2-pyridyl)pyrrolo[3,2-c]pyridin-4-amine] and `COc1ccc(CNc2nc3cnc(Nc4ccccc4)cc3n2C)cc1OC` [Compound 604, N2-[(3,4-dimethoxyphenyl)methyl]-1-methyl-N6-phenyl-imidazo[4,5-c]pyridine-2,6-diamine] fall in the same range of Emax: 30 to 50% for the first, 30 to 50% for the second.

Compared with `COc1cc(Nc2cc3c(cn2)cc(-c2cccnc2)n3C)cc(OC)c1OC` [Compound 82, 1-methyl-2-(3-pyridyl)-N-(3,4,5-trimethoxyphenyl)pyrrolo[3,2-c]pyridin-6-amine], `CNc1nc2cnc(Nc3cccc(OC)c3)cc2n1-c1cc(OC)c(OC)c(OC)c1` [Compound 484, N6-(3-methoxyphenyl)-N2-methyl-1-(3,4,5-trimethoxyphenyl)imidazo[4,5-c]pyridine-2,6-diamine] is lower in Emax: 50 to 100% for the first, 30 to 50% for the second.

`COc1ccc(Nc2nccc3[nH]c(-c4ccsc4)cc23)cc1` [Compound 259, N-(4-methoxyphenyl)-2-(3-thienyl)-1H-pyrrolo[3,2-c]pyridin-4-amine] and `COc1ccc(Nc2nccc3[nH]c(-c4ccsc4)cc23)cn1` [Compound 254, N-(6-methoxy-3-pyridyl)-2-(3-thienyl)-1H-pyrrolo[3,2-c]pyridin-4-amine] fall in the same range of Emax: 50 to 100% for the first, 50 to 100% for the second.

Compared with `CC(=O)c1cccc(Nc2cc3[nH]c(-c4cncn4C)cc3cn2)c1` [Compound 107, 1-[3-[[2-(3-methylimidazol-4-yl)-1H-pyrrolo[3,2-c]pyridin-6-yl]amino]phenyl]ethanone], `CN(C)C(=O)c1ccc(-c2cc3cnc(Nc4ccccc4Cl)cc3[nH]2)cc1` [Compound 37, 4-[6-(2-chloroanilino)-1H-pyrrolo[3,2-c]pyridin-2-yl]-N,N-dimethyl-benzamide] is lower in Emax: 50 to 100% for the first, 30 to 50% for the second.

Compared with `COc1ccc(Nc2cc3c(cn2)nc(-c2ccc(OC)c(OC)c2)n3C)cc1O` [Compound 723, 5-[[2-(3,4-dimethoxyphenyl)-1-methyl-imidazo[4,5-c]pyridin-6-yl]amino]-2-methoxy-phenol], `CNc1nc2cnc(Nc3cccc(C)c3)cc2n1Cc1ccc(OC)c(OC)c1` [Compound 671, 1-[(3,4-dimethoxyphenyl)methyl]-N2-methyl-N6-(m-tolyl)imidazo[4,5-c]pyridine-2,6-diamine] is lower in Emax: > 100% for the first, 30 to 50% for the second.

Compared with `COc1ccc(Nc2cc3c(cn2)cc(-c2cnn(C)c2)n3C)cn1` [Compound 130, N-(6-methoxy-3-pyridyl)-1-methyl-2-(1-methylpyrazol-4-yl)pyrrolo[3,2-c]pyridin-6-amine], `CN1CCN(c2cc3c(cn2)cc(-c2cnn(C)c2)n3Cc2ccccc2)CC1` [Compound 154, 1-benzyl-6-(4-methylpiperazin-1-yl)-2-(1-methylpyrazol-4-yl)pyrrolo[3,2-c]pyridine] is lower in Emax: > 100% for the first, 30 to 50% for the second.

First: COc1cccc(-c2nc3c(Nc4cccc(C(F)(F)F)c4)nccc3[nH]2)c1 [Compound 373, 2-(3-methoxyphenyl)-N-[3-(trifluoromethyl)phenyl]-1H-imidazo[4,5-c]pyridin-4-amine]
Second: CNc1nc2cnc(Nc3cccc(OC)c3)cc2n1-c1cccc(F)c1 [Compound 680, 1-(3-fluorophenyl)-N6-(3-methoxyphenyl)-N2-methyl-imidazo[4,5-c]pyridine-2,6-diamine]
The Emax of the first is lower: 0 to 30% for the first, 50 to 100% for the second.

Compared with `CNc1nc2cnc(Nc3cccc(OC)c3)cc2n1Cc1cccnc1` [Compound 560, N6-(3-methoxyphenyl)-N2-methyl-1-(3-pyridylmethyl)imidazo[4,5-c]pyridine-2,6-diamine], `CNc1nc2cnc(-c3cccs3)cc2n1Cc1cccnc1` [Compound 566, N-methyl-1-(3-pyridylmethyl)-6-(2-thienyl)imidazo[4,5-c]pyridin-2-amine] is lower in Emax: 50 to 100% for the first, 30 to 50% for the second.
